Patent publication US20180282347A1, “BICYCLIC COMPOUNDS AS PEST CONTROL AGENTS” (BAYER CROPSCIENCE AKTIENGESELLSCHAFT, priority 2014, published 2018)
Read-outs that look alike come from different tables or passages of the source.

Experiments:
[1] = log P by HPLC on reversed-phase (C18) columns, OECD Guideline 117; assay type: physicochemical; details: reversed-phase (C18) HPLC column
Procedure: Calibration is carried out using unbranched alkan-2-ones (having 3 to 16 carbon atoms) with known log P values (log P values determined on the basis of the retention times by linear interpolation between two successive alkanones).

Myzus persicae = Myzus persicae - spray test; assay type: in vivo; details: foliar, 144 h, application rate 500 g/ha, sprayed Chinese cabbage leaf discs (Brassica pekinensis) infested by all stages, after 6 days, read-out: efficacy in % (100% = all aphids killed)
Procedure: Myzus persicae—Spray Test
Solvent: 78 parts by weight of acetone • • 1.5 parts by weight of dimethylformamide
Emulsifier: alkylaryl polyglycol ether
To produce further test concentrations, the formulation is diluted with emulsifier-containing water.
After 6 days, the efficacy in % is determined. 100% means that all the aphids have been killed; 0% means that no aphids have been killed.

[2] = acidic range, pH 2.7, 0.1% aqueous formic acid and acetonitrile as eluents, read-out: logP [a]
[3] = neutral range, pH 7.8, 0.001 molar aqueous ammonium hydrogencarbonate solution and acetonitrile as eluents, read-out: logP [b]

| chromatographic logP [1, 2] | chromatographic logP [1, 3] | Compound | pest or weed control at 500 g/ha (Myzus persicae) [%] |
| --- | --- | --- | --- |
| 2.8 | 2.77 | Cc1cc(F)c(-c2cc3sc(-c4cccnc4)nc3cn2)cc1[S+]([O-])CC(F)(F)F (stereo not shown) [Example 2, 6-[2-Fluoro-4-methyl-5-(2,2,2-trifluoroethylsulphinyl)phenyl]-2-(3-pyridyl)thiazolo [4,5-c]pyridine] |  |
| 2.32 | 2.32 | FC(F)(F)c1cc2sc(-c3cccnc3)nc2cn1 [Example 3, 2-(3-Pyridyl)-6-(trifluoromethyl)thiazolo[4,5-c]pyridine] |  |
| 2.79 | 2.74 | Cc1ccc(-c2cc3sc(-c4cccnc4)nc3cn2)cc1[S+]([O-])CC(F)(F)F (stereo not shown) [Example 5] |  |
| 1.68 | 2.38 | c1ccc(-c2cc3sc(-c4cccnc4)nc3cn2)nc1 [Example 6, 6-(2-Pyridyl)-2-(3-pyridyl)thiazolo[4,5-c]pyridine] |  |
| 4.33 |  | O=C(Nc1cccc(SC(F)(F)F)c1)c1cc2sc(-c3cccnc3)nc2cn1 [Example 11] |  |
| 2.99 |  | O=C(Nc1cccc([S+]([O-])C(F)(F)F)c1)c1cc2sc(-c3cccnc3)nc2cn1 (stereo not shown) [Example 14] |  |
| 2.09 |  | O=C(Nc1cccc(S(=O)(=O)C(F)(F)F)c1)c1cc2sc(-c3cccnc3)nc2cn1 [Example 19] |  |
| 1.35 |  | CNC(=O)c1cc2sc(-c3cccnc3)nc2cn1 [Example 20] |  |
| 1.89 |  | Clc1cc2sc(-c3cccnc3)nc2cn1 [Example 24, 6-Chloro-2-(3-pyridyl)thiazolo[4,5-c]pyridine] |  |
| 4.32 | 4.21 | Cc1ccc(-c2cc3sc(-c4cccnc4)nc3cn2)cc1SCC(F)(F)F [Example 25] |  |
| 3.66 | 3.68 | FC(F)(F)c1ccn(-c2cc3sc(-c4cccnc4)nc3cn2)n1 [Example 26, 2-(Pyridin-3-yl)-6-[3-(trifluoromethyl)-1H-pyrazol-1-yl][1,3]thiazolo[4,5-c]pyridine] |  |
| 1.38 | 2.61 | c1cncc(-c2nc3cnc(N4CCCC4)cc3s2)c1 [Example 27, 2-(Pyridin-3-yl)-6-(pyrrolidin-1-yl)[1,3]thiazolo[4,5-c]pyridine] |  |
| 2.61 |  | O=C(Nc1cc2sc(-c3cccnc3)nc2cn1)c1cccc([S+]([O-])C(F)(F)F)c1 (stereo not shown) [Example 28] |  |
| 1.17 |  | CS(=O)(=O)CCC(=O)Nc1cc2sc(-c3cccnc3)nc2cn1 [Example 29] |  |
| 1.23 |  | CS(=O)(=O)CCNC(=O)c1cc2sc(-c3cccnc3)nc2cn1 [Example 30] |  |

| Compound | chromatographic logP [1, 2] | chromatographic logP [1, 3] | pest or weed control at 500 g/ha (Myzus persicae) [%] |
| --- | --- | --- | --- |
| Cc1cc(F)c(-c2cc3sc(-c4cccnc4)nc3cn2)cc1SCC(F)(F)F [Example 1, 6-[2-Fluoro-4-methyl-5-(2,2,2-trifluoroethylsulphanyl)phenyl]-2-(3-pyridyl)thiazolo [4,5-c]pyridine] | 4.45 | 4.41 | 90 |
| c1cncc(-c2nc3cnc(N4CCOCC4)cc3s2)c1 [Example 4, 4-[2-(3-Pyridyl)thiazolo[4,5-c]pyridin-6-yl]morpholine] | 1.73 | 1.94 | 90 |
| CN(C(=O)c1cccc(SC(F)(F)F)c1)c1cc2sc(-c3cccnc3)nc2cn1 [Example 7] | 3.3 |  | 90 |
| CN(C(=O)C1CCS(=O)(=O)C1)c1cc2sc(-c3cccnc3)nc2cn1 (stereo not shown) [Example 10] | 1.37 |  | 90 |
| CN(C(=O)CCS(C)(=O)=O)c1cc2sc(-c3cccnc3)nc2cn1 [Example 17, N-Methyl-3-(methylsulphonyl)-N-[2-(pyridin-3-yl) [1,3]thiazolo[4,5-c]pyridin-6-yl]propanamide] | 1.25 |  | 90 |
| CN(C(=O)c1cccc(S(=O)(=O)C(F)(F)F)c1)c1cc2sc(-c3cccnc3)nc2cn1 [Example 18] | 1.54 |  | 100 |
| CCN(C)C(=O)c1cc2sc(-c3cccnc3)nc2cn1 [Example 21] | 1.52 |  | 90 |
| CN(C(=O)c1cccc([S+]([O-])C(F)(F)F)c1)c1cc2sc(-c3cccnc3)nc2cn1 (stereo not shown) [Example 22] | 2.21 |  | 90 |
